In ChEMBL document CHEMBL1201862, “PubChem BioAssay data set” (2004):
Values belong to the molecule of their own block, whether it stands above or below them. The source made the active and inactive calls.

Legend:
[1] = Counterscreen for IDE inhibitors: Luminescence-based cell-based high throughput dose response assay to identify compounds that are cytotoxic to HEK cells. [Related pubchem assays: 434962 (Primary screen (IDE inhibitors in singlicate)), 449730 (Counterscreen (Cytotoxicity in triplicate)), 435028 (Confirmation (IDE inhibitors in triplicate)) …; format: functional; conditions: HEK293
Insulin-degrading enzyme = target: T1, Insulin-degrading enzyme (Homo sapiens, UniProt P14735); assay: Dose Response: Fluorescence polarization-based cell-based high throughput dose response assay for inhibitors of insulin-degrading enzyme (IDE). [Related pubchem assays: 434962 (Primary screen (IDE inhibitors in singlicate)), 449730 (Counterscreen (Cytotoxicity in triplicate)), 435028 (Confirmation (IDE inhibitors in triplicate)), 434984 (Summary …; format: functional
T1 sequence (P14735 whole entry): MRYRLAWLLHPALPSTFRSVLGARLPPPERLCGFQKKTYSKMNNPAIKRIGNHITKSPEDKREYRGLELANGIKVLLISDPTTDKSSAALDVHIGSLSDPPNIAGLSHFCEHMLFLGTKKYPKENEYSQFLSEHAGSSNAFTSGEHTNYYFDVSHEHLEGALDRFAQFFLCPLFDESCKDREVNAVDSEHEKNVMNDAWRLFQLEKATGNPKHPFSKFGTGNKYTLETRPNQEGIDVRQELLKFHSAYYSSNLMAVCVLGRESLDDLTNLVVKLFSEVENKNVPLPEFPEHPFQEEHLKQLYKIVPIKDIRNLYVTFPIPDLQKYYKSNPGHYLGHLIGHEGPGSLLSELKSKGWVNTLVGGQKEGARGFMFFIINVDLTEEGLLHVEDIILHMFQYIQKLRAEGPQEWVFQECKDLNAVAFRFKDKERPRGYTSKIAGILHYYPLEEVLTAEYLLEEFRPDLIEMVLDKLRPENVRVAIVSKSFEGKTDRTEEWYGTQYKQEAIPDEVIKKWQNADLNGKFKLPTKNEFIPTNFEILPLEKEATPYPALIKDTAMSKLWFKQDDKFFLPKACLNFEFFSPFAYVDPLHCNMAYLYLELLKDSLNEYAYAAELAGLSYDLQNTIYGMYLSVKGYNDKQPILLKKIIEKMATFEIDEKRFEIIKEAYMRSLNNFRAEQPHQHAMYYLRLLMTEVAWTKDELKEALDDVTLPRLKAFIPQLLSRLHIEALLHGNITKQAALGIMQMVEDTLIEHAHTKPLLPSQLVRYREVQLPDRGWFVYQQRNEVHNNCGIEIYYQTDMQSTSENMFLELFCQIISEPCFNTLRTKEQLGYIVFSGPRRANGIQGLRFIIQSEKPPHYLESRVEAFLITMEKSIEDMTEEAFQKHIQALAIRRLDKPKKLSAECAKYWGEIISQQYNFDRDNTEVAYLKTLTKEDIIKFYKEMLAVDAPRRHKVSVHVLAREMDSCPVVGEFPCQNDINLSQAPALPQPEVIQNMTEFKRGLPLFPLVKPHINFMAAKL

[2] = target: Sphingosine 1-phosphate receptor 1 (Homo sapiens, UniProt P21453); assay: Fluorescence-based counterscreen assay for S1P4 agonists: Cell-based dose response high throughput screening assay to identify agonists of the Sphingosine 1-Phosphate Receptor 1 (S1P1). [Related pubchem assays (depositor defined):AID1509, AID1523, AID1801, AID463107, AID463118, AID463119, AID463122, AID463123, AID463129, AID463225, AID504400, AID504460]; format: functional
Sphingosine 1-phosphate receptor 1, sequence (P21453 whole entry): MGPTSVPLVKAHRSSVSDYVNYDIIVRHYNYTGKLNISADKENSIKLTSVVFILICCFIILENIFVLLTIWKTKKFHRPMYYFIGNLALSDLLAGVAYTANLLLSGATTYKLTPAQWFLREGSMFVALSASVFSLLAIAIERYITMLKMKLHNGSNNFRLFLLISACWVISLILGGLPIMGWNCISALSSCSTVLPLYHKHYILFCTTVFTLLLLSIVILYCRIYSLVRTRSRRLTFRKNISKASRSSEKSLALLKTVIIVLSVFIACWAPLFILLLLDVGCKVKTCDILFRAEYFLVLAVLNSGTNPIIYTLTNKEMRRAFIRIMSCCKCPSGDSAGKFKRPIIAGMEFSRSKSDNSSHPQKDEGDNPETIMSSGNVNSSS

[3] = target: T2, Sphingosine 1-phosphate receptor 4 (Homo sapiens, UniProt O95977); assay: Fluorescence dose response cell-based high throughput screening assay for agonists of the Sphingosine 1-Phosphate Receptor 4 (S1P4). [Related pubchem assays: 1509 (Primary screen.), 1523 (Confirmation screen in triplicates.)]; format: functional
T2 sequence (O95977 whole entry): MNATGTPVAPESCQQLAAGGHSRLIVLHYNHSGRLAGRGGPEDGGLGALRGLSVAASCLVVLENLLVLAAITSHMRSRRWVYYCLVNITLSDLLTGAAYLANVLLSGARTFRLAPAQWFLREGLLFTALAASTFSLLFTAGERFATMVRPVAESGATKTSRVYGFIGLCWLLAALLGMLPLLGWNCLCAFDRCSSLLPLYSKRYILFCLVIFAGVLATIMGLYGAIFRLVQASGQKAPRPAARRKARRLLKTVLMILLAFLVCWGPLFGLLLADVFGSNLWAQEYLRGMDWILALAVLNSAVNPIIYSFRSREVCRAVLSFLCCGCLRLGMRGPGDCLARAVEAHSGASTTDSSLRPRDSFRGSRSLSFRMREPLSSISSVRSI

[4] = target: T3, Zinc finger protein mex-5 (Caenorhabditis elegans, UniProt Q9XUB2); assay: potency of MEX-5 RNA-binding blockers – biochemical, C. elegans, fluorescence polarization, dose response (AID 1960)
T3 sequence (Q9XUB2 whole entry): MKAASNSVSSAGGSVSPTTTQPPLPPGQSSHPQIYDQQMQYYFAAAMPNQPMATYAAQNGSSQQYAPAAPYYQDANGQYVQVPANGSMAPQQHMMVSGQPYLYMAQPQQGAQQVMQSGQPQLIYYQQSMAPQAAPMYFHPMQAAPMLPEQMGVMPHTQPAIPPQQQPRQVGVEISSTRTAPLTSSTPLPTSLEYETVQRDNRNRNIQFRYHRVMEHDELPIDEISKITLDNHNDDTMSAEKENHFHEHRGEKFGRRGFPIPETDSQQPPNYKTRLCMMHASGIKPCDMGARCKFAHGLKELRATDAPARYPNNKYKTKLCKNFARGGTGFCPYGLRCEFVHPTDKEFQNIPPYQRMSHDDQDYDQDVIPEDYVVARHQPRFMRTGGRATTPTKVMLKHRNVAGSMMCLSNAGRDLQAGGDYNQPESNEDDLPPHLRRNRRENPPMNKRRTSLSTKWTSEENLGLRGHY

[5] = target: T4, RNA-binding protein pos-1 (Caenorhabditis elegans, UniProt G5EF15); assay: disruptors of C. elegans POS-1 RNA interaction – biochemical, fluorescence polarization, dose response (AID 1964);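 also: purified POS-1 fused to maltose binding protein made in E. coli; potency of compounds blocking POS-1 binding to fluorescent RNA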
T4 sequence (G5EF15 whole entry): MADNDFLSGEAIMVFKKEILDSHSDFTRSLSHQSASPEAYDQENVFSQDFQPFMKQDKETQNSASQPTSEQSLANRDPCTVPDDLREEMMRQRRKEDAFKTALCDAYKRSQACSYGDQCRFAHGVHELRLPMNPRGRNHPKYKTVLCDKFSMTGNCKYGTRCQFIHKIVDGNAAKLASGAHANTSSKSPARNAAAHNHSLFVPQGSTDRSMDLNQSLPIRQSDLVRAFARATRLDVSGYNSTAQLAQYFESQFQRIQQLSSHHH

CAAX prenyl protease 2 = CAAX prenyl protease 2 (Homo sapiens, UniProt Q9Y256); assay: inhibition of Ras-converting CAAX protease Rce1 – biochemical, yeast membranes, quenched-peptide fluorescence, cherry-pick, dose response (AID 588849)
CAAX prenyl protease 2, sequence (Q9Y256 whole entry): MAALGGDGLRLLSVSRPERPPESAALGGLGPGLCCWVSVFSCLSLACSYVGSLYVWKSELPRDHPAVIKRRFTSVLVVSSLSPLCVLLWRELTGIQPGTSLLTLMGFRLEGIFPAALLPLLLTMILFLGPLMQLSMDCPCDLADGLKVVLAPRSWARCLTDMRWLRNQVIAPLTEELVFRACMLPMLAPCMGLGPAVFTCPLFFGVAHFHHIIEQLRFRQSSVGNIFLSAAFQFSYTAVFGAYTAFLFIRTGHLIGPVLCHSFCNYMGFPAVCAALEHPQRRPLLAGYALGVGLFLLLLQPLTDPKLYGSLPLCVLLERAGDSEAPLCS

[6] = target: Kappa-type opioid receptor (Homo sapiens, UniProt P41145); assay: SAR analysis of small molecule agonists of the kappa opioid receptor via a luminescent beta-arrestin assay - Set 3. [Related pubchem assays (depositor defined):AID1777, AID1785, AID1786, AID1966, AID2133, AID2136, AID2284, AID2500]; format: functional
Kappa-type opioid receptor, sequence (P41145 whole entry): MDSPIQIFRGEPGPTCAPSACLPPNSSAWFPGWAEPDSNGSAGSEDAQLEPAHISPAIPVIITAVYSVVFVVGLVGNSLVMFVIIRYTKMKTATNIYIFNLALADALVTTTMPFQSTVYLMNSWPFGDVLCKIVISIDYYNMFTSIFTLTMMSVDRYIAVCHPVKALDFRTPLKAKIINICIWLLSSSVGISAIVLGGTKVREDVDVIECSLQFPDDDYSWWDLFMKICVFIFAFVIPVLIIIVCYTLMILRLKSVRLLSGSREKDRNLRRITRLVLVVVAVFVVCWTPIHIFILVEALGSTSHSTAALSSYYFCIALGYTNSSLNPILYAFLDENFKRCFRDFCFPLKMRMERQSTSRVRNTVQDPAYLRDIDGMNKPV

[7] = target: Lysine-specific demethylase 4A (Homo sapiens, UniProt O75164); assay: inhibition of JMJD2A H3K9me3 demethylation – biochemical, DELFIA europium, cherry-picked samples, selectivity assay for GASC-1 inhibitor project, dose response (AID 488840)
Lysine-specific demethylase 4A, sequence (O75164 whole entry): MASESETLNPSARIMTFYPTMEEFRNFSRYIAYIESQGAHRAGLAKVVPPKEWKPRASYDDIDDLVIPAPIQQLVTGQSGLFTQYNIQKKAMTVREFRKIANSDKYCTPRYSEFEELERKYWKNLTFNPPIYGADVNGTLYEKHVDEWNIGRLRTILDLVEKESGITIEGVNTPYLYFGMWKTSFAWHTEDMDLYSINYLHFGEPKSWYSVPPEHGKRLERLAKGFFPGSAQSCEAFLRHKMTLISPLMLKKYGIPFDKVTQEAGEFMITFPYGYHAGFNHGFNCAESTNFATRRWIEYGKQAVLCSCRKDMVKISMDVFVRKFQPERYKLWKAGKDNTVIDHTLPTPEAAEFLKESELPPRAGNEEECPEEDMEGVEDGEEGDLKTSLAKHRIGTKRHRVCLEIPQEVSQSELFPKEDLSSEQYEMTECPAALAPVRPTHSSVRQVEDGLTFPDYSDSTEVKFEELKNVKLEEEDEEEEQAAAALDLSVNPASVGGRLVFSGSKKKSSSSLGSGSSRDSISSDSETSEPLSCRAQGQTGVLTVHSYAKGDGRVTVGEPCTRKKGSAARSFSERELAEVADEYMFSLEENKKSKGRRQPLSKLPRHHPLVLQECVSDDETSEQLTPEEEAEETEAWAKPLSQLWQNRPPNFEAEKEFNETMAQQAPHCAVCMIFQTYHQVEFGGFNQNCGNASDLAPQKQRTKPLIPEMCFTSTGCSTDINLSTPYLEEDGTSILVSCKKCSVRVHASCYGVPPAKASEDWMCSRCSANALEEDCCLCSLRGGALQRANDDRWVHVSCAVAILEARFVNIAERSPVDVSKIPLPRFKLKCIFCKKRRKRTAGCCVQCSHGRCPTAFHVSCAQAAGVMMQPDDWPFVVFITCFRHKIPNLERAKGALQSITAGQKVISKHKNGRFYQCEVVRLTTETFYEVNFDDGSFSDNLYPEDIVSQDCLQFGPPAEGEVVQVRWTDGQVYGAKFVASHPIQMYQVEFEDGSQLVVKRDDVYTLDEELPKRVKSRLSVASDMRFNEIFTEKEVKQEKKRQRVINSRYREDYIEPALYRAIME

[8] = target: Lysine-specific demethylase 4C (Homo sapiens, UniProt Q9H3R0); assay: inhibition of JMJD2C H3K9me3 demethylation – biochemical, DELFIA europium, cherry-picked samples, dose response (AID 488835); format: functional
Lysine-specific demethylase 4C, sequence (Q9H3R0 whole entry): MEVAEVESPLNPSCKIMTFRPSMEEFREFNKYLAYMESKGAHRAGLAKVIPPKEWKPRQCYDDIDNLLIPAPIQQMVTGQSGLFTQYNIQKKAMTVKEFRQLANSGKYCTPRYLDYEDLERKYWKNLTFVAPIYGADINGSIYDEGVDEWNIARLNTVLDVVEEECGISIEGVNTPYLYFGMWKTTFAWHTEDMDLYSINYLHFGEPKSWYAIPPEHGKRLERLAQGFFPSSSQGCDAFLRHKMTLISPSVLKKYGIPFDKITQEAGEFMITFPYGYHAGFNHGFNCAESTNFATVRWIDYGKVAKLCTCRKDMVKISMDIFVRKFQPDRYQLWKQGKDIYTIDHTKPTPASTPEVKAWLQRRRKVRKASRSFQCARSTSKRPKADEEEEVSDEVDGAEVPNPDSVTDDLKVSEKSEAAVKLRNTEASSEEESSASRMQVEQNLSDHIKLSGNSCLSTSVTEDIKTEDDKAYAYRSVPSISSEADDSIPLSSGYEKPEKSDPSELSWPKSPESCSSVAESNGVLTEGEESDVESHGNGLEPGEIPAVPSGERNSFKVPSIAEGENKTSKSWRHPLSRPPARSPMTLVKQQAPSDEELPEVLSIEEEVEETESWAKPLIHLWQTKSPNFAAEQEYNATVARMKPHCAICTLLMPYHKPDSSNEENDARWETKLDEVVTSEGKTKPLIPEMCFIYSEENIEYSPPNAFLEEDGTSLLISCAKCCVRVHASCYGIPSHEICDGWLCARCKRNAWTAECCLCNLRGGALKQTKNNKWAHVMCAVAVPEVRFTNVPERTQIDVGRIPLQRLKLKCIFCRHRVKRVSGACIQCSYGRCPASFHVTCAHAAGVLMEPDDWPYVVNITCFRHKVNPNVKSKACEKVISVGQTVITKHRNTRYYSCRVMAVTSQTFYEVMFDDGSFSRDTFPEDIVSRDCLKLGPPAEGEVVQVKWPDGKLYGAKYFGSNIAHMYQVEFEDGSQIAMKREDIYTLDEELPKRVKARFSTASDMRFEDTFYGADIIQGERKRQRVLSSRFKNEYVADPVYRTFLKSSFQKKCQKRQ

Structure (SMILES): COc1ccc(C2CC(c3cccs3)=NN2c2ccc(C=O)cc2)cc1 (stereo not given)
- IC50 [1]: 41.2 µM (not active)
- IC50 (Insulin-degrading enzyme): > 55.9 µM (not active)
- EC50 [2]: 12.5 µM (inactive)
- EC50 [3]: 8.63 µM (active)
- EC50 [4]: 24.6 µM (active)
- EC50 [5]: 18.3 µM (active)
- AC50 (CAAX prenyl protease 2): 8.53 µM (active)

- EC50 [6]: 8.51 µM (active)
Structure (SMILES): Brc1ccc(CSc2nnc(-c3ccccn3)n2Cc2cccnc2)cc1

- AC50 [7]: 8.34 µM (active)
- AC50 [8]: 6.73 µM (active)
Structure (SMILES): COc1ccccc1NC(=O)COC(=O)c1nc(O)nc(O)c1N
